Where “and” joins values, the source holds several entries; their conditions need not be identical. Equal values may be shown once.
Tested on: caterpillars of the diamond back moth (Plutella xylostella, resistant strain)
Assay: Plutella test, resistant strain (cabbage leaves dipped)
Assay type: in vivo
Conditions: 500 ppm active compound
Procedure: Plutella Test, Resistant Strain
(§1) To produce a suitable preparation of active compound, 1 part by weight of active compound is mixed with the stated amounts of solvent and emulsifier, and the concentrate is diluted with emulsifier-containing water to the desired concentration.
Cabbage leaves (Brassica oleracea) are treated by being dipped into the preparation of active compound of the desired concentration and are populated with caterpillars of the diamond back moth (Plutella xylostella, resistant strain) while the leaves are still moist.
(§2) After the desired period of time, the kill in % is determined. 100% means that all caterpillars have been killed; 0% means that none of the caterpillars have been killed.

Row | Compound | Kill rate in % after 7 d [%]
1 | Cc1cc(C(F)(C(F)(F)F)C(F)(F)F)ccc1NC(=O)c1c(Cl)cccc1C(=O)NC(C)CSC[Si](C)(C)C (stereo not shown) [drawing 44] | 100
2 | Cc1cc(C(F)(C(F)(F)F)C(F)(F)F)ccc1NC(=O)c1cccc(Cl)c1C(=O)NC(C)CSC[Si](C)(C)C (stereo not shown) [drawing 45] | 100

Tested on: larvae of the mustard beetle (Phaedon cochleariae)
Assay: Phaedon larvae test (cabbage leaves dipped)
Assay type: in vivo
Conditions: 500 ppm active compound
Procedure: as §1
Cabbage leaves (Brassica oleracea) are treated by being dipped into the preparation of active compound of the desired concentration and are populated with larvae of the mustard beetle (Phaedon cochleariae) while the leaves are still moist.
After the desired period of time, the kill in % is determined. 100% means that all beetle larvae have been killed; 0% means that none of the beetle larvae have been killed.

Row | Compound | Kill rate in % after 7 d [%]
3 | Cc1cc(Oc2ccc(C(F)(F)F)cc2)ccc1NC(=O)c1cccc(I)c1C(=O)NC(C)CSC[Si](C)(C)C (stereo not shown) [drawing 38] | 100
4 | Cc1cc(C(F)(C(F)(F)F)C(F)(F)F)ccc1NC(=O)c1cccc(I)c1C(=O)NC(C)CSC[Si](C)(C)C (stereo not shown) [drawing 37] | 100
5 | Cc1cc(C(F)(C(F)(F)F)C(F)(F)F)ccc1NC(=O)c1c(Cl)cccc1C(=O)NC(C)CSC[Si](C)(C)C (stereo not shown) [drawing 35] | 90
6 | Cc1cc(C(F)(C(F)(F)F)C(F)(F)F)ccc1NC(=O)c1cccc(Cl)c1C(=O)NC(C)CSC[Si](C)(C)C (stereo not shown) [drawing 36] | 100
7 | Cc1cc(Oc2ccc(C(F)(F)F)cc2)ccc1NC(=O)c1cccc(Cl)c1C(=O)NC(C)CSC[Si](C)(C)C (stereo not shown) [drawing 39] | 100

Tested on: not listed separately
Assay: logP determination by HPLC (reversed-phase C18), EEC directive 79/831 Annex V.A8
Assay type: physicochemical
Conditions: pH 2.3, 0.1% aqueous phosphoric acid/acetonitrile gradient, 43° C.
Procedure: The stated logP values were determined in accordance with EEC directive 79/831 Annex V.A8 by HPLC (High Performance Liquid Chromatography) using a reversed-phase column (C 18). Temperature: 43° C.
In the acidic range, the determination was carried out at pH 2.3 using the mobile phases 0.1% aqueous phosphoric acid and acetonitrile; linear gradient from 10% acetonitrile to 90% acetonitrile.
Calibration was carried out using unbranched alkan-2-ones (having 3 to 16 carbon atoms) with known logP values (determination of the logP values by the retention times using linear interpolation between two successive alkanones.

Row | Compound | log P (pH 2.3)
8 | 3-Chloro-N^1-[2-methyl-4-(1,1,2,2-tetrafluoroethoxy)phenyl]-N^2-[(trimethylsilyl)methyl]phthalamide (Isomer 1) and 3-chloro-N^2-[2-methyl-4-(1,1,2,2-tetrafluoroethoxy)phenyl]-N^1-[(trimethylsilyl)methyl]phthalamide (Isomer 2) [Example 2 Isomer Mixture] | 3.59 and 3.69

Same assay, conditions: pH 2.3, 0.1% aqueous phosphoric acid/acetonitrile gradient, 43° C., read-out: log P (pH 2.3)

Row | Compound | chromatographic logP
9 | Cc1cc(C(F)(C(F)(F)F)C(F)(F)F)ccc1NC(=O)c1c(Cl)cccc1C(=O)NC(C)CSC[Si](C)(C)C (single isomer, unassigned) [Example 1 Isomer 1, 3-Chloro-N^2-{2-methyl-4-[1,2,2,2-tetrafluoro-1-(trifluoromethyl)ethyl]phenyl}-N^1-(1-methyl-2-{[(trimethylsilyl)methyl]sulphanyl}ethyl)phthalamide] | 5.38
10 | Cc1cc(C(F)(C(F)(F)F)C(F)(F)F)ccc1NC(=O)c1cccc(Cl)c1C(=O)NC(C)CSC[Si](C)(C)C (single isomer, unassigned) [Example 1 Isomer 2, 3-Chloro-N^1-{2-methyl-4-[1,2,2,2-tetrafluoro-1-(trifluoromethyl)ethyl]phenyl}-N^2-(1-methyl-2-{[(trimethylsilyl)methyl]sulphanyl}ethyl)phthalamide] | 5.56
11 | CC(N)CSC[Si](C)(C)C (stereo not shown) [1-{[(trimethylsilyl)methyl]sulphanyl}-2-propanamide] | 1.28
12 | Cc1cc(C(F)(C(F)(F)F)C(F)(F)F)ccc1NC(=O)c1c(Cl)cccc1C(=O)NCC(C)(C)O[Si](C)(C)C (single isomer, unassigned) [Example 3 Isomer 2, 3-Chloro-N^2-{2-methyl-4-[1,2,2,2-tetrafluoro-1-(trifluoromethyl)ethyl]phenyl}-N^1-{2-methyl-2-[(trimethylsilyl)oxy]propyl}phthalamide] | 3.19
13 | Cc1cc(C(F)(C(F)(F)F)C(F)(F)F)ccc1NC(=O)c1cccc(Cl)c1C(=O)NCC(C)(C)O[Si](C)(C)C (single isomer, unassigned) [Example 3 Isomer 1, 3-Chloro-N^1-{2-methyl-4-[1,2,2,2-tetrafluoro-1-(trifluoromethyl)ethyl]phenyl}-N^2-{2-methyl-2-[(trimethylsilyl)oxy]propyl}phthalamide] | 3.11

Tested on: Heliothis virescens caterpillars
Assay: Heliothis virescens test (soybean shoots dipped)
Assay type: in vivo
Conditions: 500 ppm active compound
Procedure: as §1
Soybean shoots (Glycine max) are treated by being dipped into the preparation of active compound of the desired concentration and are populated with Heliothis virescens caterpillars while the leaves are still moist.
as §2

Row | Compound | Kill rate in % after 7 d [%]
14 | Cc1cc(C(F)(C(F)(F)F)C(F)(F)F)ccc1NC(=O)c1c(I)cccc1C(=O)NC(C)CSC[Si](C)(C)C (stereo not shown) [drawing 33] | 100
15 | Cc1cc(C(F)(C(F)(F)F)C(F)(F)F)ccc1NC(=O)c1cccc(I)c1C(=O)NC(C)CSC[Si](C)(C)C (stereo not shown) [drawing 34] | 100
16 | Cc1cc(C(F)(C(F)(F)F)C(F)(F)F)ccc1NC(=O)c1c(Cl)cccc1C(=O)NC(C)CSC[Si](C)(C)C (stereo not shown) [drawing 31] | 100
17 | Cc1cc(C(F)(C(F)(F)F)C(F)(F)F)ccc1NC(=O)c1cccc(Cl)c1C(=O)NC(C)CSC[Si](C)(C)C (stereo not shown) [drawing 32] | 100

Tested on: caterpillars of the army worm (Spodoptera frugiperda)
Assay: Spodoptera frugiperda test (cabbage leaves dipped)
Assay type: in vivo
Conditions: 168 h, 500 ppm active compound, after 7 d, read-out: Kill rate in % after 7 d
Procedure: Spodoptera frugiperda Test
as §1
Cabbage leaves (Brassica oleracea) are treated by being dipped into the preparation of active compound of the desired concentration and are populated with caterpillars of the army worm (Spodoptera frugiperda) while the leaves are still moist.
as §2

Row | Compound | pest or weed control at 500 ppm [%]
18 | Cc1cc(Oc2ccc(C(F)(F)F)cc2)ccc1NC(=O)c1c(I)cccc1C(=O)NC(C)CSC[Si](C)(C)C (stereo not shown) | 100
19 | Cc1cc(C(F)(C(F)(F)F)C(F)(F)F)ccc1NC(=O)c1cccc(I)c1C(=O)NC(C)CSC[Si](C)(C)C (stereo not shown) [drawing 56] | 100
20 | Cc1cc(Oc2ccc(C(F)(F)F)cc2)ccc1NC(=O)c1c(Cl)cccc1C(=O)NC(C)CSC[Si](C)(C)C (stereo not shown) | 100
21 | Cc1cc(C(F)(C(F)(F)F)C(F)(F)F)ccc1NC(=O)c1cccc(Cl)c1C(=O)NC[Si](C)(C)C | 100
22 | Cc1cc(C(F)(C(F)(F)F)C(F)(F)F)ccc1NC(=O)c1c(I)cccc1C(=O)NC(C)CSC[Si](C)(C)C (stereo not shown) [drawing 55] | 100
23 | Cc1cc(C(F)(C(F)(F)F)C(F)(F)F)ccc1NC(=O)c1cccc(Cl)c1C(=O)NC(C)CSC[Si](C)(C)C (stereo not shown) [drawing 54] | 100
24 | Cc1cc(Oc2ccc(C(F)(F)F)cc2)ccc1NC(=O)c1cccc(Cl)c1C(=O)NC(C)CSC[Si](C)(C)C (stereo not shown) [drawing 58] | 100
25 | Cc1cc(-c2nnn(C(C)(C)C)n2)ccc1NC(=O)c1cccc(I)c1C(=O)NC(C)CSC[Si](C)(C)C (stereo not shown) | 100
26 | Cc1cc(C(F)(C(F)(F)F)C(F)(F)F)ccc1NC(=O)c1cccc(Cl)c1C(=O)NCC(C)(C)O[Si](C)(C)C | 100
27 | Cc1cc(C(F)(C(F)(F)F)C(F)(F)F)ccc1NC(=O)c1c(Cl)cccc1C(=O)NCC(C)(C)O[Si](C)(C)C | 100
28 | Cc1cc(Oc2ccc(C(F)(F)F)cc2)ccc1NC(=O)c1cccc(I)c1C(=O)NC(C)CSC[Si](C)(C)C (stereo not shown) [drawing 57] | 100
29 | Cc1cc(C(F)(C(F)(F)F)C(F)(F)F)ccc1NC(=O)c1c(Cl)cccc1C(=O)NC(C)CSC[Si](C)(C)C (stereo not shown) [drawing 52] | 100

Tested on: caterpillars of the diamond back moth (Plutella xylostella, sensitive strain)
Assay: Plutella test, sensitive strain (cabbage leaves dipped)
Assay type: in vivo
Conditions: 500 ppm active compound
Procedure: Plutella Test, Sensitive Strain
as §1
Cabbage leaves (Brassica oleracea) are treated by being dipped into the preparation of active compound of the desired concentration and are populated with caterpillars of the diamond back moth (Plutella xylostella, sensitive strain) while the leaves are still moist.
as §2

Row | Compound | Kill rate in % after 7 d [%]
30 | Cc1cc(C(F)(C(F)(F)F)C(F)(F)F)ccc1NC(=O)c1cccc(Cl)c1C(=O)NC(C)CSC[Si](C)(C)C (stereo not shown) [drawing 41] | 100
31 | Cc1cc(C(F)(C(F)(F)F)C(F)(F)F)ccc1NC(=O)c1c(I)cccc1C(=O)NC(C)CSC[Si](C)(C)C (stereo not shown) [drawing 42] | 100
32 | Cc1cc(C(F)(C(F)(F)F)C(F)(F)F)ccc1NC(=O)c1c(Cl)cccc1C(=O)NC(C)CSC[Si](C)(C)C (stereo not shown) [drawing 40] | 100
33 | Cc1cc(C(F)(C(F)(F)F)C(F)(F)F)ccc1NC(=O)c1cccc(I)c1C(=O)NC(C)CSC[Si](C)(C)C (stereo not shown) [drawing 43] | 100

Tested on: caterpillars of the army worm (Spodoptera exigua)
Assay: Spodoptera exigua test (cabbage leaves dipped)
Assay type: in vivo
Conditions: 500 ppm active compound
Procedure: as §1
Cabbage leaves (Brassica oleracea) are treated by being dipped into the preparation of active compound of the desired concentration and are populated with caterpillars of the army worm (Spodoptera exigua) while the leaves are still moist.
as §2

Row | Compound | Kill rate in % after 7 d [%]
34 | Cc1cc(C(F)(C(F)(F)F)C(F)(F)F)ccc1NC(=O)c1c(Cl)cccc1C(=O)NC(C)CSC[Si](C)(C)C (stereo not shown) [drawing 46] | 100
35 | Cc1cc(C(F)(C(F)(F)F)C(F)(F)F)ccc1NC(=O)c1c(I)cccc1C(=O)NC(C)CSC[Si](C)(C)C (stereo not shown) [drawing 48] | 100
36 | Cc1cc(C(F)(C(F)(F)F)C(F)(F)F)ccc1NC(=O)c1cccc(Cl)c1C(=O)NC(C)CSC[Si](C)(C)C (stereo not shown) [drawing 47] | 100
37 | Cc1cc(C(F)(C(F)(F)F)C(F)(F)F)ccc1NC(=O)c1cccc(I)c1C(=O)NC(C)CSC[Si](C)(C)C (stereo not shown) [drawing 49] | 100
